Source: US8895733B2 (Novartis AG, priority 2010, dated 2014)

Molecular target: T1, Nav 1.7 (Homo sapiens, UniProt Q15858)
T1 construct: expressed in transfected cells
Assay: Whole-cell voltage clamp electrophysiology, automated patch clamp (marker c in Table of Examples)
Assay type: cell-based
Settings: marker c: Automated patch clamp data; read-out: Nav 1.7 activity
Method in brief: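 A voltage protocol weighted toward inactivated-state block was used to test compounds on stably expressing cells, with pulses from −65 mV holding to −10 mV test and −100 mV. Currents came from whole-cell automated patch-clamp recordings, either IonWorks Quattro or other automated instruments, usually in perforated-patch mode.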

T1 sequence (Q15858 whole entry): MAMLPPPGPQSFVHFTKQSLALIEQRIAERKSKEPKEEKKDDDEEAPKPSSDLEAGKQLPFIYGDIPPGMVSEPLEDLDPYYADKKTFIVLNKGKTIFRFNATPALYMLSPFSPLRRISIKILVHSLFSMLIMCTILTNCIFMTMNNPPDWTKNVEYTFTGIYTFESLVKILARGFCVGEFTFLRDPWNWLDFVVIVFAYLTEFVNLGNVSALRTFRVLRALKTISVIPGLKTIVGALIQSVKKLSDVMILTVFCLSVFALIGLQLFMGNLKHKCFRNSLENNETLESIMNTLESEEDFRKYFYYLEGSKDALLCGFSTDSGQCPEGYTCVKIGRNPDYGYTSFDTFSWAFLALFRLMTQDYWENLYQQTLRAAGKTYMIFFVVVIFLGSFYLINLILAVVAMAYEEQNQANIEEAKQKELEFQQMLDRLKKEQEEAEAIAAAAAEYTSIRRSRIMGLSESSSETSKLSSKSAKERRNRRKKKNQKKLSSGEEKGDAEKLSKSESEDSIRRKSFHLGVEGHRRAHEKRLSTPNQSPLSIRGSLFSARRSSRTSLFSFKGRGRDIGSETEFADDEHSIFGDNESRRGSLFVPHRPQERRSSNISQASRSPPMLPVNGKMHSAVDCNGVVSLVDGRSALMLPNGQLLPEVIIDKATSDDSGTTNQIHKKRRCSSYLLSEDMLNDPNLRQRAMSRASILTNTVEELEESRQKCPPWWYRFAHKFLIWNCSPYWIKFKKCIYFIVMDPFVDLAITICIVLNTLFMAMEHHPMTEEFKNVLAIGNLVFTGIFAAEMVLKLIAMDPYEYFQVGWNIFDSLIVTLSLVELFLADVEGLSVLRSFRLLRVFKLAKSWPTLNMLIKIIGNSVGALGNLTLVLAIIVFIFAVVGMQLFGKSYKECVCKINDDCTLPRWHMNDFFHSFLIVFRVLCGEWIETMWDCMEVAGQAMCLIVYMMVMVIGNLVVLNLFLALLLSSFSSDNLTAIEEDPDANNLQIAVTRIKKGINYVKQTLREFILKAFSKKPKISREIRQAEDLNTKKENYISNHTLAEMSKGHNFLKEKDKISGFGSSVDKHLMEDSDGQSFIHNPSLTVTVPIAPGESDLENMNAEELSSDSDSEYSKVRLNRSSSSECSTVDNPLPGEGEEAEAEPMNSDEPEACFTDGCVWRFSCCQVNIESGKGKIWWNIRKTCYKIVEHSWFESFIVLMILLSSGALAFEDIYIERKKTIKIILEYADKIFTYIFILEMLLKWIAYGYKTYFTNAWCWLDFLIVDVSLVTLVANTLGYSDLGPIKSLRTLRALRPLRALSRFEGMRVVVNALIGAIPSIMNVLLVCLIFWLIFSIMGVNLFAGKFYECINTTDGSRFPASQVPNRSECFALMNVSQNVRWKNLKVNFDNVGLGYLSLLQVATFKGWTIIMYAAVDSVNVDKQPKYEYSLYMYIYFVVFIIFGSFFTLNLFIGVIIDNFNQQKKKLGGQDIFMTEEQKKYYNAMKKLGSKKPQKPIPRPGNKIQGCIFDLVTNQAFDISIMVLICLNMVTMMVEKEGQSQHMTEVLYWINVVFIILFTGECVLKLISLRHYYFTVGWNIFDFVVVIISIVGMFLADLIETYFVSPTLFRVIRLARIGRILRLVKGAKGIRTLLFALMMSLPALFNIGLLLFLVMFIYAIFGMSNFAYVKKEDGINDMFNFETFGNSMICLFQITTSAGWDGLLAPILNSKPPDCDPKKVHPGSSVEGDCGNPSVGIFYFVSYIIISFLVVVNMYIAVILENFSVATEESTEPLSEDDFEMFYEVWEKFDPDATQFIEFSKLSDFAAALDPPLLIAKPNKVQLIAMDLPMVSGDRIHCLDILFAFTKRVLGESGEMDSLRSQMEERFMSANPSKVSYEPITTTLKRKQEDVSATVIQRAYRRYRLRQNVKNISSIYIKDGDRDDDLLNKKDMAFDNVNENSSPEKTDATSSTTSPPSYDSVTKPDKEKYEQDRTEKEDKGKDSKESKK

Nc1nc(Nc2ccccc2)nc(-c2noc(N3CCC(COCC(F)(F)F)CC3)n2)n1 [Example 174, 2-N-Phenyl-6-(5-{4-[(2,2,2-trifluoroethoxy)methyl]piperidin-1-yl}-1,2,4-oxadiazol-3-yl)-1,3,5-triazine-2,4-diamine]
IC50: 340 nM

CN(c1ccccc1)c1nc(N)nc(-c2noc(N3CCC(CSCC(F)(F)F)CC3)n2)n1 [Example 175, 2-N-methyl-2-N-phenyl-6-[5-(4-{[(2,2,2-trifluoroethyl)sulfanyl]methyl}piperidin-1-yl)-1,2,4-oxadiazol-3-yl]-1,3,5-triazine-2,4-diamine]
IC50: 20 nM

CN(c1ccccc1)c1nc(N)nc(-c2noc(N3CCC(CSc4ccccc4)CC3)n2)n1 [Example 176, 2-N-methyl-2-N-phenyl-6-(5-{4-[(phenylsulfanyl)methyl]piperidin-1-yl}-1,2,4-oxadiazol-3-yl)-1,3,5-triazine-2,4-diamine]
IC50: 223 nM

CC(C)SCC1CCN(c2nc(-c3nc(N)nc(N(C)c4ccccc4)n3)no2)CC1 [Example 177, 2-N-methyl-2-N-phenyl-6-(5-{4-[(propan-2-ylsulfanyl)methyl]piperidin-1-yl}-1,2,4-oxadiazol-3-yl)-1,3,5-triazine-2,4-diamine]
IC50: 306 nM

CN(c1ccccc1)c1nc(N)nc(-c2noc(N3CCC(CS(=O)(=O)CC(F)(F)F)CC3)n2)n1 [Example 178, 2-N-Methyl-2-N-phenyl-6-[5-(4-{[(2,2,2-trifluoroethane)sulfonyl]methyl}piperidin-1-yl)-1,2,4-oxadiazol-3-yl]-1,3,5-triazine-2,4-diamine]
IC50: 2650 nM

CN(c1ccccc1)c1nc(N)nc(-c2noc(N3CCC(CS(=O)(=O)c4ccccc4)CC3)n2)n1 [Example 179, 6-(5-{4-[(benzenesulfonyl)methyl]piperidin-1-yl}-1,2,4-oxadiazol-3-yl)-2-N-methyl-2-N-phenyl-1,3,5-triazine-2,4-diamine]
IC50: 810 nM

CC(C)[S+]([O-])CC1CCN(c2nc(-c3nc(N)nc(N(C)c4ccccc4)n3)no2)CC1 (stereo not shown) [Example 180, 2-N-methyl-2-N-phenyl-6-(5-{4-[(propane-2-sulfinyl)methyl]piperidin-1-yl}-1,2,4-oxadiazol-3-yl)-1,3,5-triazine-2,4-diamine]
IC50: > 7710 nM

CC(C)S(=O)(=O)CC1CCN(c2nc(-c3nc(N)nc(N(C)c4ccccc4)n3)no2)CC1 [Example 181, 2-N-methyl-2-N-phenyl-6-(5-{4-[(propane-2-sulfonyl)methyl]piperidin-1-yl}-1,2,4-oxadiazol-3-yl)-1,3,5-triazine-2,4-diamine]
IC50: 9080 nM

COC(=O)c1cccc(Nc2nc(N)nc(-c3noc(-c4ccc(OCC(F)(F)F)nc4)n3)n2)c1 [Example 182, methyl 3-[(4-amino-6-{5-[6-(2,2,2-trifluoroethoxy)pyridin-3-yl]-1,2,4-oxadiazol-3-yl}-1,3,5-triazin-2-yl)amino]benzoate]
IC50: 8690 nM

CCOc1ccccc1-c1nc(-c2nc(N)nc(N(C)c3cccc(C)c3)n2)no1 [Example 183, 6-[5-(2-ethoxyphenyl)-1,2,4-oxadiazol-3-yl]-2-N-methyl-2-N-(3-methylphenyl)-1,3,5-triazine-2,4-diamine]
IC50: 67 nM

COc1ccc(-c2nc(-c3nc(N)nc(N(C)c4cccc(C)c4)n3)no2)cc1 [Example 184, 6-[5-(4-methoxyphenyl)-1,2,4-oxadiazol-3-yl]-2-N-methyl-2-N-(3-methylphenyl)-1,3,5-triazine-2,4-diamine]
IC50: 62 nM

COc1cccc(F)c1-c1nc(-c2nc(N)nc(N(C)c3cccc(C)c3)n2)no1 [Example 185, 6-[5-(2-fluoro-6-methoxyphenyl)-1,2,4-oxadiazol-3-yl]-2-N-methyl-2-N-(3-methylphenyl)-1,3,5-triazine-2,4-diamine]
IC50: 144 nM

COc1ccc(F)cc1-c1nc(-c2nc(N)nc(N(C)c3cccc(C)c3)n2)no1 [Example 186]
IC50: 87 nM
